“And” between values parts separate entries of the source, which are not always exact repeats. Equal values may be shown once. ± gives the expanded uncertainty stated by the source.
Key:
[1] = for vapor or sublimation pressure: Liquid
[2] = molar enthalpy of transition or fusion; conditions: Crystal, DSC
[3] = Molar enthalpy of transition or fusion; conditions: Crystal; DSC
[4] = molar heat capacity at constant pressure; conditions: 101.33 kPa, Crystal, Flow calorimetry
[5] = molar enthalpy of vaporization or sublimation

Compound: O=C(O)c1cc(Br)ccc1Br [2,5-dibromobenzoic acid]
- vapor or sublimation pressure ([1]; 450.1 K, non-isothermal thermogravimetric): 1.151 ± 0.11 kPa
- vapor or sublimation pressure ([1]; 451.2 K, isothermal thermogravimetric): 1.291 ± 0.11 kPa
- vapor or sublimation pressure ([1]; 452 K, non-isothermal thermogravimetric): 1.302 ± 0.12 kPa
- vapor or sublimation pressure ([1]; 452.1 K, isothermal thermogravimetric): 1.259 ± 0.11 kPa
- vapor or sublimation pressure ([1]; 452.3 K, isothermal thermogravimetric): 1.306 ± 0.1 kPa
- vapor or sublimation pressure ([1]; 452.9 K, isothermal thermogravimetric): 1.282 ± 0.1 kPa
- vapor or sublimation pressure ([1]; 452.9 K, non-isothermal thermogravimetric): 1.335 ± 0.1 kPa
- vapor or sublimation pressure ([1]; 453.1 K, non-isothermal thermogravimetric): 1.404 ± 0.099 kPa
- vapor or sublimation pressure ([1]; 454.2 K, non-isothermal thermogravimetric): 1.429 ± 0.098 kPa
- vapor or sublimation pressure ([1]; 455.1 K, isothermal thermogravimetric): 1.608 ± 0.11 kPa
- vapor or sublimation pressure ([1]; 456.1 K, isothermal thermogravimetric): 1.617 ± 0.12 kPa
- vapor or sublimation pressure ([1]; 456.2 K, isothermal thermogravimetric): 1.573 ± 0.11 kPa
- vapor or sublimation pressure ([1]; 456.3 K, non-isothermal thermogravimetric): 1.578 ± 0.11 kPa
- vapor or sublimation pressure ([1]; 456.7 K, non-isothermal thermogravimetric): 1.622 ± 0.11 kPa
- vapor or sublimation pressure ([1]; 456.8 K, isothermal thermogravimetric): 1.602 ± 0.11 kPa
- vapor or sublimation pressure ([1]; 457.1 K, non-isothermal thermogravimetric): 1.739 ± 0.12 kPa
- vapor or sublimation pressure ([1]; 458.2 K, non-isothermal thermogravimetric): 1.752 ± 0.1 kPa
- vapor or sublimation pressure ([1]; 459.3 K, isothermal thermogravimetric): 1.974 ± 0.1 kPa
- vapor or sublimation pressure ([1]; 460 K, isothermal thermogravimetric): 1.91 ± 0.14 kPa
- vapor or sublimation pressure ([1]; 460.1 K, non-isothermal thermogravimetric): 1.931 ± 0.14 kPa
- vapor or sublimation pressure ([1]; 460.3 K, isothermal thermogravimetric): 1.994 ± 0.14 kPa
- vapor or sublimation pressure ([1]; 460.6 K, non-isothermal thermogravimetric): 1.967 ± 0.12 kPa
- vapor or sublimation pressure ([1]; 461 K, isothermal thermogravimetric): 1.945 ± 0.13 kPa
- vapor or sublimation pressure ([1]; 461.2 K, non-isothermal thermogravimetric): 2.111 ± 0.14 kPa
- vapor or sublimation pressure ([1]; 462.1 K, non-isothermal thermogravimetric): 2.123 ± 0.14 kPa
- vapor or sublimation pressure ([1]; 463.1 K, isothermal thermogravimetric): 2.39 ± 0.14 kPa
- vapor or sublimation pressure ([1]; 464.1 K, isothermal thermogravimetric): 2.401 ± 0.17 kPa
- vapor or sublimation pressure ([1]; 464.2 K, non-isothermal thermogravimetric): 2.396 ± 0.17 kPa
- vapor or sublimation pressure ([1]; 464.3 K, isothermal thermogravimetric): 2.319 ± 0.15 kPa
- vapor or sublimation pressure ([1]; 464.8 K, isothermal thermogravimetric): 2.362 ± 0.14 kPa
- vapor or sublimation pressure ([1]; 464.8 K, non-isothermal thermogravimetric): 2.456 ± 0.15 kPa
- vapor or sublimation pressure ([1]; 465.4 K, non-isothermal thermogravimetric): 2.637 ± 0.14 kPa
- vapor or sublimation pressure ([1]; 466.2 K, non-isothermal thermogravimetric): 2.643 ± 0.15 kPa
- vapor or sublimation pressure ([1]; 467 K, isothermal thermogravimetric): 2.886 ± 0.19 kPa
- vapor or sublimation pressure ([1]; 467.1 K, isothermal thermogravimetric): 2.776 ± 0.18 kPa
- vapor or sublimation pressure ([1]; 468.1 K, non-isothermal thermogravimetric): 2.879 ± 0.15 kPa
- vapor or sublimation pressure ([1]; 468.2 K, isothermal thermogravimetric): 2.931 ± 0.15 kPa
- vapor or sublimation pressure ([1]; 468.5 K, non-isothermal thermogravimetric): 2.897 ± 0.14 kPa
- vapor or sublimation pressure ([1]; 468.7 K, isothermal thermogravimetric): 2.855 ± 0.078 kPa
- Normal melting temperature ([1]; Crystal, DTA): 155 ± 0.5 °C
- molar enthalpy of transition or fusion ([2]; 298.15 K): 31.6 ± 1.55 kcal/mol
- molar enthalpy of transition or fusion ([2]; 428 K): 30.7 ± 1.12 kcal/mol
- Molar enthalpy of transition or fusion [3]: 8.77 ± 0.884 kcal/mol
- molar heat capacity at constant pressure ([4]; 288.2 K): 216 ± 0.9 J/K/mol and 215.9 ± 0.9 J/K/mol
- molar heat capacity at constant pressure ([4]; 290.2 K): 217.4 ± 1 J/K/mol and 217.6 ± 1 J/K/mol and 217.5 ± 1 J/K/mol
- molar heat capacity at constant pressure ([4]; 292.2 K): 219.4 ± 1 J/K/mol and 219.3 ± 1 J/K/mol
- molar heat capacity at constant pressure ([4]; 294.2 K): 220.4 ± 0.8 J/K/mol and 220.6 ± 0.8 J/K/mol and 220.5 ± 0.8 J/K/mol
- molar heat capacity at constant pressure ([4]; 296.2 K): 221.5 ± 0.8 J/K/mol and 221.4 ± 0.8 J/K/mol and 221.7 ± 0.8 J/K/mol
- molar heat capacity at constant pressure ([4]; 298.2 K): 222.9 ± 0.9 J/K/mol and 223 ± 0.9 J/K/mol and 223.1 ± 0.9 J/K/mol
- molar heat capacity at constant pressure ([4]; 300.2 K): 224.7 ± 0.9 J/K/mol and 224.8 ± 0.9 J/K/mol
- molar heat capacity at constant pressure ([4]; 302.2 K): 225.9 ± 0.8 J/K/mol and 225.6 ± 0.8 J/K/mol and 225.8 ± 0.8 J/K/mol
- molar heat capacity at constant pressure ([4]; 304.2 K): 227 ± 0.9 J/K/mol and 227.3 ± 0.9 J/K/mol and 227.1 ± 0.9 J/K/mol
- molar heat capacity at constant pressure ([4]; 306.2 K): 228.3 ± 0.9 J/K/mol and 228.4 ± 0.9 J/K/mol and 228.5 ± 0.9 J/K/mol
- molar heat capacity at constant pressure ([4]; 308.2 K): 229.8 ± 1 J/K/mol and 229.6 ± 1 J/K/mol
- molar heat capacity at constant pressure ([4]; 310.2 K): 231.7 ± 0.9 J/K/mol and 231.6 ± 0.9 J/K/mol and 231.5 ± 0.9 J/K/mol
- molar heat capacity at constant pressure ([4]; 312.2 K): 232.5 ± 0.8 J/K/mol and 232.4 ± 0.8 J/K/mol and 232.3 ± 0.8 J/K/mol
- molar heat capacity at constant pressure ([4]; 314.2 K): 234 ± 0.9 J/K/mol and 233.9 ± 0.9 J/K/mol and 234.1 ± 0.9 J/K/mol
- molar heat capacity at constant pressure ([4]; 316.2 K): 235.3 ± 0.9 J/K/mol and 235.2 ± 0.9 J/K/mol
- molar heat capacity at constant pressure ([4]; 318.2 K): 237 ± 0.9 J/K/mol and 236.8 ± 0.9 J/K/mol and 236.9 ± 0.9 J/K/mol
- molar heat capacity at constant pressure ([4]; 320.2 K): 238.4 ± 0.7 J/K/mol and 238.5 ± 0.7 J/K/mol and 238.3 ± 0.7 J/K/mol
- molar heat capacity at constant pressure ([4]; 322.2 K): 239.1 ± 0.8 J/K/mol and 239 ± 0.8 J/K/mol
- molar heat capacity at constant pressure ([4]; 324.2 K): 240.7 ± 1 J/K/mol and 240.5 ± 1 J/K/mol and 240.4 ± 1 J/K/mol
- molar heat capacity at constant pressure ([4]; 326.2 K): 242.4 ± 1 J/K/mol and 242.1 ± 0.9 J/K/mol and 242.3 ± 1 J/K/mol
- molar enthalpy ([5]; 298.15 K, Crystal, Torsion-effucion): 31.9 ± 0.478 kcal/mol
- molar enthalpy ([5]; 428 K, Liquid, DSC): 22.2 ± 0.693 kcal/mol
